What was measured:
[1] = tested on: patient-derived BT3 glioma cells; assay: Ex vivo autoradiography of brain cryosections, orthotopic glioma; type: in vivo, BALB/cOlaHsd-Foxn1^nu mouse; conditions: for Autoradiography TBRmean: n = 12 brain sections
Source text: See Suppl. Materials in ESM for detailed descriptions of biodistribution, stability, cryosectioning, autoradiography, and histology.

[2] = tested on: patient-derived BT3 glioma cells; assay: Logan plot (reversible uptake model), orthotopic model; type: in vivo, BALB/cOlaHsd-Foxn1^nu mouse; conditions: for Logan DV (AB) distribution volume / Logan Ic (AB) y intercept: AB input; for Logan DV (PC) distribution volume / Logan IC (PC) y intercept: PC input
Method: Image analysis was performed using CARIMAS software published and freely distributed by the Turku PET Center (http://turkupetcentre.fi/carimas/). CT scans were used as rough anatomical reference while tumor regions of interest (ROI) were hand-drawn based upon observed spikes of radioactivity in the PET images at locations correlating with recorded tumor grafts. Control muscle ROIs were drawn on the side opposite to the tumor in the leg flank muscle (based on CT) while the blood ROI was drawn based upon heart anatomical location and observed PET image radioactivity spike during the initial 20 s of imaging in the left ventricle. Standardized uptake values (SUV) were calculated with respect to ROI volume, mean and max tumor radioactivity, total injected radioactivity dose (corrected for tail, cannula, and syringe residual radioactivity), and animal weight, and were additionally presented as tumor-to-background ratio (TBR, tumor-to-healthy brain region for intracranial gliomas and tumor-to-muscle for subcutaneous gliomas) as defined by recent glioma research literature standards. Mean and maximum TBR values were reported as ROI radioactivity per volume divided by mean background radioactivity per volume. The blood radioactivity SUV and gender-specific metabolite-corrected blood radioactivity SUV were then applied to multiple pharmacokinetic models to characterize the flux of the tracer (further described in the “Modeling” section).
Using the heart’s left ventricle ROI from the PET data as an uncorrected radioactivity level input and the bioavailable parent-tracer fraction (results: Eqs. 3 and 4 applied to the uncorrected input) as the corrected input, multiple models were investigated to characterize the tissue uptake dynamics. Two-compartment modeling and Logan, Patlak, and Yokoi plots were used to separately model the pharmacokinetics for the gliomas (both subcutaneous and orthotopic loci) and their respective control tissues (healthy muscle and healthy brain, respectively). Where indicated, means plus/minus standard deviations are reported. Difference in parameters for uncorrected versus correct and target tissue versus their respective control regions were tested with students’ paired t tests with P values lower than 0.05 being considered significant.

[3] = In vivo stability analysis, plasma precipitation assay; set-up: species or system C57BL/6J and Foxn1^nu/nu mice; conditions: after 60 min
Method: Tracer in vivo stability studies were performed with 12 mice consisting of two groups; 6 1-year-old male C57BL/6J and 6 3-month-old female Foxn1^nu/nu mice.
Twelve non-tumor-bearing control mice (6 C57BL/6J and 6 Foxn1^nu/nu) were injected with 9–14 MBq of tracer before a 200-μL blood sample was drawn into a heparinized vial and kept on ice. After 15 min, a second sample was collected during animal sacrifice. Whole blood was weighed and measured for radioactivity before being centrifuged at 730×g and 5 °C for 5 min, separated into plasma and blood cell fractions, and then separately weighed and measured. The values were used along with age, gender, and animal model-specific hematocrit values (reported by suppliers) to calculate the plasma radioactivity fraction of the whole-blood radioactivity (Eq. 1):1 Plasma Activity Fraction=Cp/CRBC+Cp=ρpCpHCT/ρbCb−ρpCp1−HCT+ρpCpHCT where C = radioactivity concentration, ρ = density, and HCT = hematocrit. […]
Aliquots of plasma were precipitated with 2.5 × (volume) methanol, vortexed, and centrifuged at 11,000×g for 5 min. The pellet and supernatant fractions were separated and measured for radioactivity to give the radioactivity fraction of the plasma that was trapped or bound to proteins (Eq. 2):2 Unbound plasma fraction=Csup/Cpel+Csup where C = radioactivity of subscripts which denote the following: sup = supernatant and pel = pellet. […]

In the case of `NC(=O)[C@H]([18F])C[C@H](N)C(=O)O` [[^18F]FGln, (2S, 4R)-4-[^18F]fluoroglutamine], the “Autoradiography TBRmean” value ([1]; Subject A) is reported as 8.9 ± 1.1 (range 7.2–10.5), the “Autoradiography TBRmean” value ([1]; Subject B) is reported as 9.9 ± 0.7 (range 8.9–11.0) and the “Autoradiography TBRmean” value ([1]; Subject C) is reported as 7.8 ± 0.4 (range 7.3–8.4). The “Autoradiography TBR, average” value ([1]; n = 3 subjects, 36 sections) was 8.9 ± 1.1, the “Logan DV (AB) distribution volume” value ([2]; Subject A brain (control)) was 1.61 and the “Logan Ic (AB) y intercept” value ([2]; Subject A brain (control)) was -14.15. The “Logan DV (PC) distribution volume” value ([2]; Subject A brain (control)) was 2.97, the “Logan IC (PC) y intercept” value ([2]; Subject A brain (control)) was -25.16 and the “Logan DV (AB) distribution volume” value ([2]; Subject A glioma max.) was 0.34. The “Logan Ic (AB) y intercept” value ([2]; Subject A glioma max.) was -18.72, the “Logan DV (PC) distribution volume” value ([2]; Subject A glioma max.) was 0.67 and the “Logan IC (PC) y intercept” value ([2]; Subject A glioma max.) was -34.83. For the same compound, the “Logan DV (AB) distribution volume” value ([2]; Subject A o.t. glioma) was 1.51, the “Logan Ic (AB) y intercept” value ([2]; Subject A o.t. glioma) was -19.69 and the “Logan DV (PC) distribution volume” value ([2]; Subject A o.t. glioma) was 2.97. For the same compound, the “Logan IC (PC) y intercept” value ([2]; Subject A o.t. glioma) was -36.03, the “Logan Ic (AB) y intercept” value ([2]; Subject B brain (control)) was -61.91 and the “Logan DV (PC) distribution volume” value ([2]; Subject B brain (control)) was 2.57. The “Logan IC (PC) y intercept” value ([2]; Subject B brain (control)) was -50.78, the “Logan DV (AB) distribution volume” value ([2]; Subject B glioma max.) was 1.27 and the “Logan Ic (AB) y intercept” value ([2]; Subject B glioma max.) was -26.85. The “Logan DV (PC) distribution volume” value ([2]; Subject B glioma max.) was 0.60, the “Logan IC (PC) y intercept” value ([2]; Subject B glioma max.) was -36.40 and the “Logan DV (AB) distribution volume” value ([2]; Subject B o.t. glioma) was 0.32. For the same compound, the “Logan Ic (AB) y intercept” value ([2]; Subject B o.t. glioma) was -20.23, the “Logan DV (PC) distribution volume” value ([2]; Subject B o.t. glioma) was 1.95 and the “Logan IC (PC) y intercept” value ([2]; Subject B o.t. glioma) was -41.27. For the same compound, the “Plasma radioactivity bound to or incorporated into proteins” value [3] was “roughly 25%”.
